The values that follow come from paper PMC9030827, “In Vitro Effects of Mitochondria-Targeted Antioxidants in a Small-Cell Carcinoma of the Ovary of Hypercalcemic Type and in Type 1 and Type 2 Endometrial Cancer” (Biomedicines, 2022).

The test system of assay [1] is COV434 cells. Briefly: Mitochondrial membrane potential (Δψm) assessment, DiOC6 probe. The assay is classed as cell-based, human. To be noted: COV434, 48 h; 5 μM Mito6_TPP, 20 μM Mito6_picol., 10 μM Mito6_isoq. The protocol:
(§1) The Ishikawa, Hec50co, COV434, and HFF-1 cell lines were plated at a density of 5 × 10^4 cells/well in black 96-well plates. After 24 h, the cells were treated with Mito6_TPP (5 μM), Mito6_picol. (20 μM), or Mito6_isoq. (10 μM) and incubated at 37 °C with 5% CO2 for 48 h. The Δψm study was adapted from the work of Sivandzade et al.. The mitochondrial membrane-depolarizing agent carbonyl cyanide m-chlorophenylhydrazone (CCCP) (50 μM) was used as the positive control, being added to the cells for 20 min prior to the addition of the probe DiOC6 (100 nM) for 30 min at 37 °C in the dark. The fluorescence was then measured using a BioTek Synergy HTX Multi-Mode Microplate Fluorimeter equipped with BioTek Gen5 Data Collection and Analysis Software (BioTek Instruments, Winooski, VT, USA) (excitation: 488 nm; emission: 525 nm).

The subject of assay [2] is Hec50co cells. Described as above. The assay is classed as cell-based, human. The following applies: 48 h, 5 μM Mito6_TPP, 20 μM Mito6_picol., 10 μM Mito6_isoq. The protocol:
as §1

Assay [3] concerns Ishikawa cells. The assay is described as above. The assay is classed as cell-based, human. The following applies: 48 h, 5 μM Mito6_TPP, 20 μM Mito6_picol., 10 μM Mito6_isoq. On the procedure: as §1
Assay [4] has as its system COV434 cells. Briefly: Neutral red (NR) cell viability assay. The assay is classed as cell-based. The following applies: Homo sapiens. The protocol:
(§2) Experiments were performed using the following cell lines: Ishikawa, Hec50co, COV434, and HFF-1. The Ishikawa cell line (RRID: CVCL_2529) was established from an endometrial adenocarcinoma. The Hec50co cell line (RRID: CVCL_4Y59) consists of poorly differentiated endometrial tumor cells isolated from a patient with advanced disease. Both the Ishikawa and Hec50co cell lines were kindly provided by Dr. Kim K. Leslie (The University of New Mexico Health Sciences Center, Albuquerque, NM, USA). COV434 (RRID: CVCL_2010) were initially isolated from a patient diagnosed with a granulosa cell tumor but were recently classified as cells from a small-cell carcinoma of the ovary, hypercalcemic type.The COV434 cells were purchased from the European Collection of Authenticated Cell Cultures (ECACC) (#07071909). HFF-1 (RRID: CVCL_3285) is an immortalized human foreskin fibroblasts cell line, obtained from the American Type Culture Collection (ATCC), which was used as control, as they are non-tumorous cells. The Ishikawa and Hec50co cells were maintained in Dulbecco’s Modified Eagle Medium/F12 (DMEM/F12) supplemented with 5% Foetal Bovine Serum (FBS). COV434 cells were maintained in DMEM/F12 supplemented with 10% FBS. HFF-1 were maintained in Roswell Park Memorial Institute 1640 (RPMI 1640) supplemented with 10% FBS. All mediums were supplemented with 1% AB-AM and all cells were kept at 37 °C with 5% CO2. The treatment with the compounds was done in the respective cell medium supplemented with 2% FBS and 24 h after platting the cells in the culture medium with 5% FBS to allow their adherence.
(§3) The Ishikawa, Hec50co, COV434, and HFF-1 cell lines were plated at a density of 5 × 10^4 cells/well in transparent 96-well plates. After 24 h, the cells were treated with Mito6_TPP, Mito6_picol., or Mito6_isoq. (0.01–100 μM) and incubated at 37 °C with 5% CO2 for 24, 48, or 72 h. […] The conditions of the methylthiazolyldiphenyl-tetrazolium bromide (MTT) assay were adapted from the work of Banerjee et al.. Briefly, MTT was added to a final concentration of 0.5 mg/mL, and the cells were incubated for 3 h at 37 °C with 5% CO2. After the 3 h, purple MTT formazan crystals were dissolved by agitation for 15 min in a solution of DMSO/isopropanol (ratio 3:1) and quantified spectrophotometrically at 540 nm. The neutral red (NR) assay conditions were based on the work developed by Repetto et al.. Briefly, after the incubation time, cells were incubated with NR at 40 μg/mL in an FBS-free cell medium for 3 h. The cells were then incubated with a solution of 50% ethanol (96% v/v), 49% deionized water, and 1% glacial acetic acid, with shaking for 15 min. The NR extracted from the cells was measured at 540 nm. The LDH cytotoxicity assay was not performed on the HFF-1 cells due to the lack of evidence of cell death at the concentrations tested. After the incubation time, this assay was performed using a Thermo Scientific Pierce LDH Cytotoxicity Assay Kit according to the manufacturer’s instructions. For all assays, the absorbance was read using a BioTek Synergy HTX Multi-Mode Microplate Reader equipped with BioTek Gen5 Data Collection and Analysis Software (BioTek Instruments, Winooski, VT, USA).
(§4) Data were evaluated using the one- or two-way analysis of variance (ANOVA) test followed by Bonferroni’s test for multiple comparisons. The data presented was expressed as mean ± SEM (Standard Error of the Mean) of a minimum of three and a maximum of seven independent experiments performed in triplicate. Values of p < 0.05 were considered statistically significant. Half of the maximal effective concentration (EC50) values were estimated by interpolation of dose-response curves and reported as a mean with a 95% confidence interval (CI 95%). All statistical analysis was performed using GraphPad Prism Software 8.0 (GraphPad Software, Inc., San Diego, CA, USA). […]

In another assay the test system is HFF-1 cells. Briefly: Neutral red (NR) cell viability assay. To be noted: Homo sapiens. The assay is classed as cell-based. The protocol:
as §2, §3, §4

Assay [5] has as its system Hec50co cells. Briefly: Neutral red (NR) cell viability assay. The assay is classed as cell-based. To be noted: Homo sapiens. The protocol:
as §2, §3, §4

For assay [6], the system named is Ishikawa cells. Briefly: Neutral red (NR) cell viability assay. The assay is classed as cell-based. The following applies: Homo sapiens. The protocol: as §2, §3, §4
Where [7] appears, read: COV434, 24 hours of incubation, read-out: EC50 (decrease of viability), NR assay.
[8] abbreviates: COV434, 48 h of incubation, read-out: EC50 (decrease of viability), NR Assay.
Setting [9] is: COV434, 72 hours of incubation, read-out: EC50 (decrease of viability), NR assay.
[10] abbreviates: 24 h, read-out: EC50 (decrease of viability), NR assay.
The mark [11] stands for this setting: 48 h, read-out: EC50 (decrease of viability), NR Assay.
[12] abbreviates: 72 h, read-out: EC50 (decrease of viability), NR assay.
[13] abbreviates: HFF-1, 48 h of incubation, read-out: EC50 (decrease of viability), NR Assay.
Where [14] appears, read: Hec50co, 24 hours of incubation, read-out: EC50 (decrease of viability), NR assay.
Where [15] appears, read: Hec50co, 48 h of incubation, read-out: EC50 (decrease of viability), NR Assay.
Where [16] appears, read: Hec50co, 72 hours of incubation, read-out: EC50 (decrease of viability), NR assay.
Setting [17] is: 24 hours of incubation, read-out: EC50 (decrease of viability), NR assay.
The mark [18] stands for this setting: 48 h of incubation, read-out: EC50 (decrease of viability), NR Assay.
Setting [19] is: 72 hours of incubation, read-out: EC50 (decrease of viability), NR assay.

Like-named read-outs stand apart in the source and are kept apart here. Some results are limits rather than exact numbers.

One may read the EC50 as the concentration that produces a half-maximal response.

As to `O=C(/C=C/c1ccc(O)c(O)c1)NCCCCCCCCCC[P+](c1ccccc1)(c1ccccc1)c1ccccc1` [Mito6_TPP], the “Mitochondrial membrane potential (Δψm) change vs untreated cells” value with COV434 cells [1], in the assay with Hec50co cells [2] and in the assay with Ishikawa cells [3] was “significant decrease” throughout. The concentration giving a half-maximal response (EC50) in the assay on COV434 cells [4] (setting [7]) was 13.6 µM; with COV434 cells [4] (setting [8]), 9.11 µM; in the assay with COV434 cells [4] (setting [9]), 4.01 µM; with HFF-1 cells (HFF-1, 24 h, read-out: EC50 (decrease of viability), NR assay) it was 73.6 µM; with HFF-1 cells (HFF-1, 48 h, read-out: EC50 (decrease of viability), NR Assay), 57 µM; in the assay on HFF-1 cells (HFF-1, 72 h, read-out: EC50 (decrease of viability), NR assay), 45.1 µM. For the same compound, the concentration giving a half-maximal response (EC50) with Hec50co cells [5] (setting [10]) stood at 53.6 µM; with Hec50co cells [5] (setting [11]), 35.4 µM; in the assay on Hec50co cells [5] (setting [12]), 23.9 µM; in the assay with Ishikawa cells [6] (setting [10]) it was 33.2 µM; with Ishikawa cells [6] (setting [11]), 15.7 µM; in the assay with Ishikawa cells [6] (setting [12]), 11.2 µM.

Take `O=C(/C=C/c1ccc(O)c(O)c1)NCCCCCCCCCC[n+]1ccc2ccccc2c1` [Mito6_isoq.]: the “Mitochondrial membrane potential (Δψm) change vs untreated cells” value in the assay with COV434 cells [1], in the assay with Hec50co cells [2] and in the assay on Ishikawa cells [3] was “significant decrease” throughout. For the same compound, the concentration for a half-maximal effect (EC50) in the assay on COV434 cells [4] (setting [7]) was 51.6 µM; with COV434 cells [4] (setting [8]) it was 40 µM; in the assay with COV434 cells [4] (setting [9]) it was 30.8 µM; in the assay on HFF-1 cells (HFF-1, 24 hours of incubation, read-out: EC50 (decrease of viability), NR assay), > 100 µM; in the assay with HFF-1 cells (setting [13]), 97 µM; in the assay with HFF-1 cells (HFF-1, 72 hours of incubation, read-out: EC50 (decrease of viability), NR assay), 68.6 µM. Also, the EC50 was > 100 µM in the assay with Hec50co cells [5] (setting [14]); 150 µM with Hec50co cells [5] (setting [15]); 87.6 µM in the assay with Hec50co cells [5] (setting [16]); 55.3 µM with Ishikawa cells [6] (setting [17]); 36.9 µM with Ishikawa cells [6] (setting [18]); 28.9 µM with Ishikawa cells [6] (setting [19]).

In the case of `Cc1cc[n+](CCCCCCCCCCNC(=O)/C=C/c2ccc(O)c(O)c2)cc1` [Mito6_picol.], the “Mitochondrial membrane potential (Δψm) change vs untreated cells” value is “decrease” with COV434 cells [1]; “decrease only in the Ishikawa and COV434 cells” in the assay on Hec50co cells [2]; “decrease” in the assay with Ishikawa cells [3]. Moreover, the concentration for a half-maximal effect (EC50) in the assay with COV434 cells [4] (setting [7]) was 87.8 µM; with COV434 cells [4] (setting [8]) it was 62.5 µM; with COV434 cells [4] (setting [9]) it was 34.2 µM; with HFF-1 cells (setting [13]) it was > 100 µM; in the assay with Hec50co cells [5] (setting [14]) it was > 100 µM; with Hec50co cells [5] (setting [15]) it was 197 µM. In addition, the EC50 in the assay on Hec50co cells [5] (setting [16]) was 92 µM; in the assay on Ishikawa cells [6] (setting [17]), > 100 µM; with Ishikawa cells [6] (setting [18]), 84.4 µM; in the assay on Ishikawa cells [6] (setting [19]), 59.4 µM.
